Experimental data from ChEMBL document CHEMBL1201862, “PubChem BioAssay data set” (2004).
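Cells were grown in 96-well plates and exposed to each compound for 48 hours at five concentrations; endpoints were interpolated linearly between bracketing concentrations, or set to the highest concentration if not reached. The concentration for 50% growth inhibition is given as GI50.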 The source made the active and inactive calls. No stated cut-off is given here; in the data, active = GI50 up to about 1.1 µM and inactive = higher.

Experiments:
Assay in all cases: growth of human tumour cells (NCI), 48 h
786-0 = test system: 786-0
A498 = test system: A498
A549 = test system: A549
ACHN = test system: ACHN
COLO 205 = test system: COLO 205
DLD-1 = test system: DLD-1
DMS-114 = test system: DMS-114
EKVX = test system: EKVX
HCC 2998 = test system: HCC 2998
HCT-116 = test system: HCT-116
HCT-15 = test system: HCT-15
HL-60 = test system: HL-60
HOP-18 = test system: HOP-18
HOP-62 = test system: HOP-62
HOP-92 = test system: HOP-92
HT-29 = test system: HT-29
IGROV-1 = test system: IGROV-1
K562 = test system: K562
KM-20L2 = test system: KM-20L2
KM12 = test system: KM12
LOX IMVI = test system: LOX IMVI
LXFL 529 = test system: LXFL 529
M19-MEL = test system: M19-MEL
MOLT-4 = test system: MOLT-4
Malme-3M = test system: Malme-3M
NCI-H226 = test system: NCI-H226
NCI-H23 = test system: NCI-H23
NCI-H460 = test system: NCI-H460
NCI-H522 = test system: NCI-H522
OVCAR-3 = test system: OVCAR-3
OVCAR-4 = test system: OVCAR-4
OVCAR-5 = test system: OVCAR-5
OVCAR-8 = test system: OVCAR-8
RPMI-8226 = test system: RPMI-8226
RXF 393 = test system: RXF 393
RXF 631 = test system: RXF 631
SF-268 = test system: SF-268
SF-295 = test system: SF-295
SF-539 = test system: SF-539
SK-MEL-28 = test system: SK-MEL-28
SK-MEL-2 = test system: SK-MEL-2
SN12C = test system: SN12C
SNB-19 = test system: SNB-19
SNB-75 = test system: SNB-75
SNB-78 = test system: SNB-78
SR = test system: SR
SW-620 = test system: SW-620
TK-10 = test system: TK-10
U-251 = test system: U-251
UACC-257 = test system: UACC-257
UO-31 = test system: UO-31
XF498 = test system: XF498
CAKI-1 = test system: CAKI-1
CCRF-CEM = test system: CCRF-CEM
DMS-273 = test system: DMS-273
M14 = test system: M14
SK-MEL-5 = test system: SK-MEL-5
SK-OV-3 = test system: SK-OV-3
UACC-62 = test system: UACC-62

CCOC(=O)c1sc(Nc2cc(Cl)ccc2Cl)nc1C
GI50 (786-0): > 100 µM (inactive)
GI50 (A498): > 100 µM (inactive)
GI50 (A549): 72.3 µM (inactive)
GI50 (ACHN): 35.5 µM (inactive)
GI50 (COLO 205): > 100 µM (inactive)
GI50 (DLD-1): 44.7 µM (inactive)
GI50 (DMS-114): 93.3 µM (inactive)
GI50 (EKVX): > 100 µM (inactive)
GI50 (HCC 2998): > 100 µM (inactive)
GI50 (HCT-116): > 100 µM (inactive)
GI50 (HCT-15): 67.8 µM
GI50 (HL-60): > 100 µM (inactive)
GI50 (HOP-18): > 100 µM (inactive)
GI50 (HOP-62): > 100 µM (inactive)
GI50 (HOP-92): 22.6 µM (inactive)
GI50 (HT-29): 50.2 µM (inactive)
GI50 (IGROV-1): 73.1 µM (inactive)
GI50 (K562): 42.9 µM (inactive)
GI50 (KM-20L2): 54.7 µM (inactive)
GI50 (KM12): > 100 µM (inactive)
GI50 (LOX IMVI): > 100 µM (inactive)
GI50 (LXFL 529): 91.4 µM (inactive)
GI50 (M19-MEL): > 100 µM (inactive)
GI50 (MOLT-4): 29.6 µM (inactive)
GI50 (Malme-3M): > 100 µM (inactive)
GI50 (NCI-H226): 83.2 µM (inactive)
GI50 (NCI-H23): 34.4 µM (inactive)
GI50 (NCI-H460): > 100 µM (inactive)
GI50 (NCI-H522): > 100 µM (inactive)
GI50 (OVCAR-3): 84.1 µM (inactive)
GI50 (OVCAR-4): > 100 µM (inactive)
GI50 (OVCAR-5): 37.3 µM (inactive)
GI50 (OVCAR-8): 96.4 µM (inactive)
GI50 (RPMI-8226): 53.2 µM (inactive)
GI50 (RXF 393): > 100 µM (inactive)
GI50 (RXF 631): > 100 µM (inactive)
GI50 (SF-268): > 100 µM (inactive)
GI50 (SF-295): 64 µM (inactive)
GI50 (SF-539): > 100 µM (inactive)
GI50 (SK-MEL-28): > 100 µM (inactive)
GI50 (SK-MEL-2): 95.1 µM (inactive)
GI50 (SN12C): 61.9 µM (inactive)
GI50 (SNB-19): > 100 µM (inactive)
GI50 (SNB-75): 15.6 µM (inactive)
GI50 (SNB-78): > 100 µM (inactive)
GI50 (SR): 52.5 µM (inactive)
GI50 (SW-620): > 100 µM (inactive)
GI50 (TK-10): > 100 µM (inactive)
GI50 (U-251): > 100 µM (inactive)
GI50 (UACC-257): 81.8 µM (inactive)
GI50 (UO-31): > 100 µM (inactive)
GI50 (XF498): 48.4 µM (inactive)

COc1ccc(/C=C2\C(=O)N(NC(C)=O)c3ccccc32)cc1
GI50 (786-0): > 100 µM (inactive)
GI50 (A498): > 100 µM (inactive)
GI50 (A549): 58.9 µM (inactive)
GI50 (ACHN): > 100 µM (inactive)
GI50 (CAKI-1): 43.5 µM (inactive)
GI50 (CCRF-CEM): 49.7 µM (inactive)
GI50 (COLO 205): > 100 µM (inactive)
GI50 (DLD-1): 68.4 µM (inactive)
GI50 (DMS-114): 77.3 µM (inactive)
GI50 (DMS-273): 99.1 µM (inactive)
GI50 (EKVX): 48.8 µM (inactive)
GI50 (HCC 2998): 71.6 µM (inactive)
GI50 (HCT-116): 63.4 µM (inactive)
GI50 (HCT-15): 67.9 µM
GI50 (HOP-18): > 100 µM (inactive)
GI50 (HOP-62): 97.3 µM (inactive)
GI50 (HOP-92): > 100 µM (inactive)
GI50 (HT-29): 42 µM (inactive)
GI50 (IGROV-1): > 100 µM (inactive)
GI50 (K562): 28.6 µM (inactive)
GI50 (KM-20L2): > 100 µM (inactive)
GI50 (KM12): 87.9 µM (inactive)
GI50 (LOX IMVI): > 100 µM (inactive)
GI50 (M14): > 100 µM (inactive)
GI50 (M19-MEL): > 100 µM (inactive)
GI50 (MOLT-4): 40.9 µM (inactive)
GI50 (Malme-3M): > 100 µM (inactive)
GI50 (NCI-H226): > 100 µM (inactive)
GI50 (NCI-H23): > 100 µM (inactive)
GI50 (NCI-H460): > 100 µM (inactive)
GI50 (OVCAR-3): 56.4 µM (inactive)
GI50 (OVCAR-4): > 100 µM (inactive)
GI50 (OVCAR-5): > 100 µM (inactive)
GI50 (OVCAR-8): 48.1 µM (inactive)
GI50 (RPMI-8226): 37.4 µM (inactive)
GI50 (RXF 631): > 100 µM (inactive)
GI50 (SF-268): 80.4 µM (inactive)
GI50 (SF-295): > 100 µM (inactive)
GI50 (SF-539): > 100 µM (inactive)
GI50 (SK-MEL-28): > 100 µM (inactive)
GI50 (SK-MEL-2): > 100 µM (inactive)
GI50 (SK-MEL-5): 46.2 µM (inactive)
GI50 (SK-OV-3): > 100 µM (inactive)
GI50 (SN12C): > 100 µM (inactive)
GI50 (SNB-19): > 100 µM (inactive)
GI50 (SNB-75): 33.5 µM (inactive)
GI50 (SNB-78): > 100 µM (inactive)
GI50 (SW-620): 95.9 µM (inactive)
GI50 (TK-10): 46.5 µM (inactive)
GI50 (U-251): > 100 µM (inactive)
GI50 (UACC-257): > 100 µM (inactive)
GI50 (UACC-62): > 100 µM (inactive)
GI50 (UO-31): 37.4 µM (inactive)
GI50 (XF498): > 100 µM (inactive)

O=C1c2ccccc2C(=O)N1CCCOCc1cnc(O)nc1O
GI50 (786-0): > 100 µM (inactive)
GI50 (A498): > 100 µM (inactive)
GI50 (A549): > 100 µM (inactive)
GI50 (ACHN): > 100 µM (inactive)
GI50 (CAKI-1): > 100 µM (inactive)
GI50 (CCRF-CEM): > 100 µM (inactive)
GI50 (COLO 205): > 100 µM (inactive)
GI50 (DLD-1): > 100 µM (inactive)
GI50 (DMS-114): > 100 µM (inactive)
GI50 (DMS-273): > 100 µM (inactive)
GI50 (EKVX): > 100 µM (inactive)
GI50 (HCT-116): > 100 µM (inactive)
GI50 (HCT-15): > 100 µM
GI50 (HL-60): > 100 µM (inactive)
GI50 (HOP-18): > 100 µM (inactive)
GI50 (HOP-62): > 100 µM (inactive)
GI50 (HOP-92): > 100 µM (inactive)
GI50 (HT-29): > 100 µM (inactive)
GI50 (IGROV-1): > 100 µM (inactive)
GI50 (K562): > 100 µM (inactive)
GI50 (KM-20L2): > 100 µM (inactive)
GI50 (KM12): > 100 µM (inactive)
GI50 (LOX IMVI): > 100 µM (inactive)
GI50 (LXFL 529): > 100 µM (inactive)
GI50 (M14): > 100 µM (inactive)
GI50 (M19-MEL): > 100 µM (inactive)
GI50 (MOLT-4): > 100 µM (inactive)
GI50 (Malme-3M): > 100 µM (inactive)
GI50 (NCI-H226): > 100 µM (inactive)
GI50 (NCI-H23): > 100 µM (inactive)
GI50 (NCI-H460): > 100 µM (inactive)
GI50 (NCI-H522): > 100 µM (inactive)
GI50 (OVCAR-3): > 100 µM (inactive)
GI50 (OVCAR-4): > 100 µM (inactive)
GI50 (OVCAR-5): > 100 µM (inactive)
GI50 (OVCAR-8): > 100 µM (inactive)
GI50 (RPMI-8226): > 100 µM (inactive)
GI50 (RXF 393): > 100 µM (inactive)
GI50 (RXF 631): > 100 µM (inactive)
GI50 (SF-268): > 100 µM (inactive)
GI50 (SF-295): > 100 µM (inactive)
GI50 (SF-539): > 100 µM (inactive)
GI50 (SK-MEL-28): > 100 µM (inactive)
GI50 (SK-MEL-2): > 100 µM (inactive)
GI50 (SK-MEL-5): > 100 µM (inactive)
GI50 (SK-OV-3): > 100 µM (inactive)
GI50 (SN12C): > 100 µM (inactive)
GI50 (SNB-19): > 100 µM (inactive)
GI50 (SNB-75): > 100 µM (inactive)
GI50 (SW-620): > 100 µM (inactive)
GI50 (TK-10): > 100 µM (inactive)
GI50 (U-251): > 100 µM (inactive)
GI50 (UACC-257): > 100 µM (inactive)
GI50 (UACC-62): > 100 µM (inactive)
GI50 (UO-31): > 100 µM (inactive)
GI50 (XF498): > 100 µM (inactive)
